From patent US10201545B2, “Styrenyl derivative compounds for treating ophthalmic diseases and disorders” (Acucela Inc., priority 2007, dated 2019)

Target: isomerase (Mus musculus (Mouse), UniProt Q91ZQ5)
Assay: In vivo murine isomerase assay (recovery of 11-cis-retinal after photobleaching)
Set-up: species or system CD-1 (albino) male mice
Settings: for inhibition at 10 mg/kg / inhibition at 1 mg/kg / inhibition at 5 mg/kg / ED50: mouse; for inhibition at 10 mg/kg / inhibition at 1 mg/kg / inhibition at 5 mg/kg: po, negative numbers leveled to 0%; for inhibition at 10 mg/kg: 10 mg/kg oral gavage; for inhibition at 1 mg/kg: 1 mg/Kg oral gavage; for inhibition at 5 mg/kg: 5 mg/kg oral gavage; for ED50: estimated, oral gavage, read-out: ED50 (dose of compound that gives 50% inhibition of 11-cis retinal (oxime) recovery)
Experimental: The capability of styrenyl derivatives to inhibit isomerase is determined by an in vivo murine isomerase assay. Brief exposure of the eye to intense light (“photobleaching” of the visual pigment or simply “bleaching”) is known to photo-isomerize almost all 11-cis-retinal in the retina. The recovery of 11-cis-retinal after bleaching can be used to estimate the activity of isomerase in vivo. Procedures were performed essentially as described by Golczak et al., Proc. Natl. Acad. Sci. USA 102:8162-67 (2005). See also Deigner et al., Science, 244: 968-71 (1989); Gollapalli et al., Biochim Biophys Acta. 1651: 93-101 (2003); Parish, et al., Proc. Natl. Acad. Sci. USA, 14609-13 (1998); Radu, et al., Proc Natl Acad Sci USA 101: 5928-33 (2004). […] Mice were gavaged with styrenyl derivative compounds, Compound 1 or Compound 25. Compound B was included as a positive control, and Compound A with low activity was also included. After 1-72 hours in the dark, the mice were exposed to photobleaching of 3,000 lux of white light for 10 minutes. The mice were allowed to recover 2 hours in the dark. The animals were then sacrificed by carbon dioxide inhalation. Retinoids were extracted from the eye and the regeneration of 11-cis-retinal was assessed at various time intervals. All steps were performed in darkness with minimal redlight illumination (low light darkroom lights and […] flashlights for spot illumination as needed) (see, e.g., Maeda et al., J. Neurochem 85:944-956, 2003; Van Hooser et al., J Biol Chem 277:19173-82, 2002). After the mice were sacrificed, the eyes were immediately removed and placed in liquid nitrogen. The eyes were then homogenized in a glass/glass homogenizer (Kontes Glass Co., homogenizer & pestle 21) containing 1 ml retinoid analysis buffer (50 mM MOPS, 10 mM NH2OH, 50% EtOH, pH 7.0 (stock buffer was stored in absence of ethanol)). The eyes were homogenized until no visible tissue remained (approximately 3 minutes). The samples were incubated 20 minutes at room temperature (including homogenizing) and then placed on ice. One ml cold EtOH was added to the homogenate to rinse the pestle, and the homogenate mixture was transferred to 7 ml glass screwtop tubes on ice. The homogenizer was rinsed with 7 ml hexane, which was added to the 7 ml tubes on ice. The homogenate was mixed by vortexing at high speed for 1 minute. The phases were separated by centrifugation (5 minutes at 4000 rpm, 4° C.). The upper phase was collected and transferred to a clean glass test tube, taking care to avoid disturbing the interface by leaving approximately 0.2 ml of upper phase in the tube. The tubes with the collected upper phase were placed in a heating block at 25° C. and dried under a stream of Argon ( 30 minutes). The lower phase was again extracted by adding 4 ml hexane, vortexing, and separating the phases by centrifugation. The upper phase was collected as described above and pooled into the drying tubes. The dried samples were solubilized in 300 μl Hexane (Fisher Optima grade) and vortexed lightly. The samples were transferred to clean 300 μl glass inserts in HPLC vials using glass pipette and the vials were crimped shut tightly. […] Part #235341). […] The area under the curve for 11-cis retinal oxime was calculated by Agilent Chemstation software and was recorded manually. Data processing was performed using Prizm software. Positive control mice (no compound administered) were sacrificed fully dark-adapted and the eye retinoids analyzed. Light (bleached) control mice (no compound administered) were sacrificed and retinoids isolated and analyzed immediately after light treatment.

Sequence of isomerase (Q91ZQ5 whole entry): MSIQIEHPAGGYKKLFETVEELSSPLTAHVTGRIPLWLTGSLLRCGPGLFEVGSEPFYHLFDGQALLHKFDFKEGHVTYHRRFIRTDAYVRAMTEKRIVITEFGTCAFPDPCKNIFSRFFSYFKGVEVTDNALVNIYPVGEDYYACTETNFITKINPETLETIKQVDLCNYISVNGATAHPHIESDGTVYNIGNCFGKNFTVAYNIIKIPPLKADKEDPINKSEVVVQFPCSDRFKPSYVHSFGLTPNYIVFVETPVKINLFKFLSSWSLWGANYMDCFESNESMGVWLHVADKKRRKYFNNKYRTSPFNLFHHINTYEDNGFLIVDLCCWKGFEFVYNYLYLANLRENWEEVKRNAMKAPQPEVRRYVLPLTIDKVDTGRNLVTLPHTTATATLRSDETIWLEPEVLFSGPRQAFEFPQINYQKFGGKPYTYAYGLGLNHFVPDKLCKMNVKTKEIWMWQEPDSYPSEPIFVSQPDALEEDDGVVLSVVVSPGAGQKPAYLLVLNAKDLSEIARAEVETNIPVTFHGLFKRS

| Structure (SMILES) | inhibition at 10 mg/kg (4 h) [%] | inhibition at 1 mg/kg (6 h) [%] | inhibition at 1 mg/kg (24 h) [%] | inhibition at 5 mg/kg (4 h) [%] | inhibition at 5 mg/kg (24 h) [%] | further results |
| --- | --- | --- | --- | --- | --- | --- |
| CC1=C(/C=C/c2cccc(C(C)CCN)c2)C(C)(C)CCC1 (stereo not shown) [Example 27, (E)-3-(3-(2-(2,6,6-trimethylcyclohex-1-enyl)vinyl)phenyl)butan-1-amine] | 11 |  |  |  |  |  |
| NCCCc1cccc(/C=C/c2c(Cl)cccc2Cl)c1 [Example 43, (E)-3-(3-(2,6-dichlorostyryl)phenyl)propan-1-amine] | 94 | 7 | 16 | 79 | 54 | inhibition at 1 mg/kg (2 h): 0% |
| CC1=C(/C=C/c2cccc(OCCN)c2)C(C)(C)CCC1 [Example 31, (E)-2-(3-(2-(2,6,6-trimethylcyclohex-1-enyl)vinyl)phenoxy)ethanamine] |  | 2 | 0 | 53 | 46 | inhibition at 1 mg/kg (2 h): 0% |
| NC[C@H](O)Cc1cccc(/C=C/c2c(Cl)cccc2Cl)c1 [Example 74, (R,E)-1-amino-3-(3-(2,6-dichlorostyryl)phenyl)propan-2-ol] |  | 40 | 9 |  | 56 | inhibition at 1 mg/kg (2 h): 19%; inhibition at 5 mg/kg (2 h): 83%; inhibition at 5 mg/kg (6 h): 91% |
| CC1=C(/C=C/c2cccc(C(N)CCN)c2)C(C)(C)CCC1 (stereo not shown) [Example 61, (E)-1-(3-(2-(2,6,6-trimethylcyclohex-1-enyl)vinyl)phenyl)propane-1,3-diamine] |  | 0 |  | 12 | 0 | inhibition at 1 mg/kg (4 h): 0% |
| CNCCCc1cccc(/C=C/c2c(C)cccc2C)c1 [Example 7, (E)-3-(3-(2,6-dimethylstyryl)phenyl)-N-methylpropan-1-amine] | 36 |  |  |  |  | inhibition at 10 mg/kg (24 h): 8% |
| CC1=C(/C=C/c2cccc(C(O)C(C)CN)c2)C(C)(C)CCC1 (stereo not drawn) [Example 59, (E)-(syn/anti)-3-amino-2-methyl-1-(3-(2-(2,6,6-trimethylcyclohex-1-enyl)vinyl)phenyl)propan-1-ol] |  | 1 |  | 21 | 7 | inhibition at 1 mg/kg (4 h): 0% |
| Cc1cc(C)cc(C=Cc2cccc(CCCN)c2)c1 (mixture of isomers) [Example 40, (E/Z)-4-(3-(3,5-dimethylstyryl)phenyl)propan-1-amine] | 2 |  |  |  |  |  |
| NCCCc1cccc(/C=C/c2c(C(F)(F)F)cccc2C(F)(F)F)c1 [Example 49, (E)-3-(3-(2,6-bis(trifluoromethyl)styryl)phenyl)propan-1-amine] |  |  | 0 | 60 | 84 | inhibition at 1 mg/kg (4 h): 10% |
| CC1=C(/C=C/c2cccc(C#CCN)c2)C(C)(C)CCC1 [Example 68, (E)-3-(3-(2-(2,6,6-trimethylcyclohex-1-enyl)vinyl)phenyl)prop-2-yn-1-amine] | 75 |  |  |  |  |  |
| NCCCc1cccc(/C=C/C2CCCCC2)c1 [Example 22, (E)-3-(3-(2-cyclohexylvinyl)phenyl)propan-1-amine] | 0 |  |  |  |  |  |
| CC(C)(O)/C=C/c1cccc(CCCN)c1 [Example 79, (E)-4-(3-(3-aminopropyl)phenyl)-2-methylbut-3-en-2-ol] |  |  |  | 24 | 0 |  |
| NC[C@@H](O)Cc1cccc(/C=C/c2c(Cl)cccc2Cl)c1 [Example 75, (S,E)-1-amino-3-(3-(2,6-dichlorostyryl)phenyl)propan-2-ol] |  | 20 | 13 |  | 85 | inhibition at 1 mg/kg (2 h): 19%; inhibition at 5 mg/kg (2 h): 81%; inhibition at 5 mg/kg (6 h): 90% |
| CC1=C(/C=C/c2cccc(C(O)CCN)c2)C(C)(C)CCC1 (stereo not shown) [Compound 25, (E)-3-amino-1-(3-(2-(2,6,6-trimethylcyclohex-1-enyl)vinyl)phenyl)propan-1-ol] | 100 |  | 96 |  |  | inhibition at 1 mg/kg (4 h): 89%; ED50 (mice): 0.44 mg/kg |
| CC1=C(/C=C/c2cccc(C(=O)CCN)c2)C(C)(C)CCC1 [Example 56, (E)-3-amino-1-(3-(2-(2,6,6-trimethylcyclohex-1-enyl)vinyl)phenyl)propan-1-one] |  | 75 | 77 |  |  | inhibition at 1 mg/kg (2 h): 26% |
| CC1=C(/C=C/c2cccc(C(F)CCN)c2)C(C)(C)CCC1 (stereo not shown) [Example 55, (E)-3-fluoro-3-(3-(2-(2,6,6-trimethylcyclohex-1-enyl)vinyl)phenyl)propan-1-amine] |  |  |  | 75 | 89 | inhibition at 1 mg/kg (2 h): 0% |
| CCC/C=C/c1cccc(CCCN)c1 [Example 23, (E)-3-(3-(pent-1-enyl)phenyl)propan-1-amine] | 0 |  |  |  |  |  |
| NCCC(O)c1cccc(/C=C/C2(O)CCCCC2)c1 (stereo not shown) [Example 111, (E)-1-(3-(3-amino-1-hydroxypropyl)styryl)cyclohexanol] |  |  |  | 90 | 0 |  |
| CCCCC/C=C/c1cccc(CCCN)c1 [Example 24, (E)-3-(3-(hept-1-enyl)phenyl)propan-1-amine] | 16 |  |  |  |  |  |
| CC1=C(/C=C/c2cccc(CC(C)CN)c2)C(C)(C)CCC1 (stereo not shown) [Example 26, (E)-2-methyl-3-(3-(2-(2,6,6-trimethylcyclohex-1-enyl)vinyl)phenyl)propan-1-amine] | 80 |  |  |  |  |  |
| CC1=C(/C=C/c2cccc(CCCN)c2)C(C)(C)CCC1 [Example 21, (E)-3-(3-(2-(2,6,6-trimethylcyclohex-1-enyl)vinyl)phenyl)propan-1-amine] | 80 |  |  |  |  |  |
| CCc1cccc(C)c1C=Cc1cccc(CCCN)c1 (mixture of isomers) [Example 32, (E/Z)-3-(3-(2-ethyl-6-methylstyryl)phenyl)propan-1-amine] | 52 |  |  |  |  |  |
| CCCC(O)(/C=C/c1cccc(CCCN)c1)CCC [Example 83, (E)-4-(3-(3-aminopropyl)styryl)heptan-4-ol] |  |  | 0 | 97 | 3 | inhibition at 1 mg/kg (4 h): 55% |
| COc1ccccc1C=Cc1cccc(CCCN)c1 (mixture of isomers) [Example 41] | 76 |  |  |  |  |  |
| Cc1cccc(C)c1/C=C/c1cccc(CCCN)c1 [Example 1, (E)-3-(3-(2,6-dimethylstyryl)phenyl)propan-1-amine] | 80 | 0 | 0 | 57 | 58 | time of maximum inhibitory effect after gavage (isomerase inhibitory activity over time, mice, FIG. 1): ~6 h; inhibition at 1 mg/kg (2 h): 0%; ED50 (mice): 4.3 mg/kg |
